Read-outs that look alike come from different tables or passages of the source.
Tests used:
Abcb1a mRNA (P-gp) = assay: qRT-PCR of mRNA expression in rat tissues after multiple-dose almonertinib; type: in vivo; conditions: rats given almonertinib for nine consecutive days, n = 3
Procedure: Sixty healthy rats were randomly divided into ten groups (n = 6). […] Blood samples were centrifuged at 3,500 g for 10 min, and then the supernatant was gathered and stored in a -80°C refrigerator. After, rat intestine, kidney and liver tissues were harvested for molecular analysis on the ninth or fifth day after treatment with the corresponding drugs for each group. The tissues were placed immediately at -80°C. qRT-PCR analysis was used to determine mRNA levels of Abcb1a, Abcg2 and Cyp3a1 in the liver and intestines, and Abcb1a and Abcg2 in the kidney of rats. Total RNA was isolated from frozen liver, intestine and kidney samples using TRNzol Universal according to the manufacturer's instructions. A Bio Tek Epoch (Bio Tek Instruments, Inc., Winooski, VT, United States) was employed to quantify the purity and concentration of the total RNA based on the ratio of the absorbance between 260 and 280 nm. RNA samples of 1 μg were transformed to complementary DNA (cDNA) using the […] Kit. The real-time PCR assays were accomplished using a two-step amplification method based on the recommendations in a SLAN-96S Real-Time PCR system (Shanghai Hongshi Medical Technology Co., Ltd. Shanghai, China). […] was used as an internal control, and the PCR cycling criteria were as follows: 95°C for 15 min, then 40 cycles of 95°C for 10, and 60°C for 32 s.

[1] = Pharmacokinetics of almonertinib in rats, alone and after multiple doses of rivaroxaban or apixaban; type: in vivo, Sprague-Dawley (SD) rats; conditions: for AUC(0-inf) / AUC(0-t) / Cmax / Tmax / CL/F / MRT last / MRT inf / Vd/F / half-life: male, Sprague-Dawley, rat, plasma, po, 15 mg/kg, mean ± SD, n = 6; for CL/F: read-out: CLz/F (converted); for MRT last: read-out: MRT0-t; for MRT inf: read-out: MRT0-∞; for Vd/F: read-out: Vz/F; for half-life: read-out: t1/2z (converted)
Procedure: Chromatographic separation was performed using an XSelect HSS T3 column (2.1 mm × 100 mm, 2.5 µm, Waters, Milford, MA, United States) at 40°C by gradient elution. The mobile phase consisted of water (A) and acetonitrile (0.1% formic acid, B). […] The flow rate was 0.35 mL min^−1, and the injection volume was 6 µL. The positive ion mode with multiple reaction detection was used. […] The mass spectrometer conditions, including delustering potential (DP) and collision energy (CE) of the compounds, are shown in Table 1. […] Protein precipitation was used to process the plasma samples. 5 μL of mixed IS working solution, 50 µL of the plasma samples, and 150 µL of acetonitrile were vortex-mixed for 1.0 min. […] The supernatant was transferred to a 96-well plate for sample analysis. […] (Beijing, China). […] The study was approved and supervised by the Animal Ethics Committee of Hebei General Hospital (Shijiazhuang, China) (No. 2023024). Adaptive feeding (sufficient food and water) was performed for 1 week before the experiment. […] All rats were fasted for 12 h before starting the experiments while still given water. Sixty healthy rats were randomly divided into ten groups (n = 6). […] Blood samples were centrifuged at 3,500 g for 10 min, and then the supernatant was gathered and stored in a −80°C refrigerator. After, rat intestine, kidney and liver tissues were harvested for molecular analysis on the ninth or fifth day after treatment with the corresponding drugs for each group. The tissues were placed immediately at −80°C. DAS 2.1.1 Software (Mathematical Pharmacology Professional Committee of China, Shanghai, China) was applied to calculate pharmacokinetic parameters using non-compartmental analysis. SPSS 25.0 statistical software (SPSS Inc., Chicago, IL, United States) was applied to statistically analyze the main pharmacokinetic parameters, including AUC, Cmax, Tmax, t1/2, CLz/F, Vz/F, and MRT.

[2] = almonertinib 15 mg/kg after multiple doses of rivaroxaban (group 9) compared with group 3, rats
[3] = rats, oral almonertinib 15 mg/kg after apixaban 0.5 mg/kg for five days (group 10)
[4] = rats, oral almonertinib 15 mg/kg after rivaroxaban 2 mg/kg for five days (group 9)
[5] = rats, oral almonertinib 15 mg/kg alone (group 3, control solvent of rivaroxaban)
[6] = rats, oral almonertinib 15 mg/kg alone (group 4, control solvent of apixaban)

SMILES: C=CC(=O)Nc1cc(Nc2nccc(-c3cn(C4CC4)c4ccccc34)n2)c(OC)cc1N(C)CCN(C)C [almonertinib, Almonertinib]
- inhibition of mRNA expression of Abcb1a (Abcb1a mRNA (P-gp); intestine): 51.3%
- inhibition of mRNA expression of Abcb1a (Abcb1a mRNA (P-gp); kidney): 42.9%
- all the pharmacokinetic parameters of almonertinib, comparison with almonertinib alone ([1]; almonertinib 15 mg/kg after multiple doses of apixaban 0.5 mg/kg (group 10) compared with group 4, rats): no statistically significant difference
- increase of Cmax of almonertinib ([1]; almonertinib 15 mg/kg after multiple doses of rivaroxaban (group 9) compared with almonertinib alone (group 3), rats): 1.26 fold
- decrease of CLz/F of almonertinib [1, 2]: 81.1%
- increase of AUC0-t of almonertinib [1, 2]: 1.17 fold
- increase of AUC0-∞ of almonertinib [1, 2]: 1.17 fold
- AUC(0-inf) [1, 3]: 293 ± 48.9 ng·h/mL
- AUC(0-t) [1, 3]: 267 ± 51.9 ng·h/mL
- Cmax [1, 3]: 42.1 ± 5.99 ng/mL
- Tmax [1, 3]: 2.5 ± 1.18 h
- CL/F [1, 3]: 877 mL/min/kg
- MRT last [1, 3]: 6.49 ± 0.35 h
- MRT inf [1, 3]: 9.31 ± 2.59 h
- Vd/F [1, 3]: 522 ± 318 L/kg
- half-life [1, 3]: 6.79 ± 4.15 h
- AUC(0-inf) [1, 4]: 299 ± 150 ng·h/mL
- AUC(0-t) [1, 4]: 299 ± 150 ng·h/mL
- Cmax [1, 4]: 51.4 ± 24.9 ng/mL
- Tmax [1, 4]: 3.17 ± 0.41 h
- CL/F [1, 4]: 1040 mL/min/kg
- MRT last [1, 4]: 5.15 ± 0.66 h
- MRT inf [1, 4]: 5.15 ± 0.66 h
- Vd/F [1, 4]: 244 ± 168 L/kg
- half-life [1, 4]: 2.7 ± 0.78 h
- AUC(0-inf) [1, 5]: 138 ± 31.3 ng·h/mL
- AUC(0-t) [1, 5]: 138 ± 31.3 ng·h/mL
- Cmax [1, 5]: 22.8 ± 4.76 ng/mL
- Tmax [1, 5]: 2.17 ± 1.13 h
- CL/F [1, 5]: 1880 mL/min/kg
- MRT last [1, 5]: 5.03 ± 0.73 h
- MRT inf [1, 5]: 5.03 ± 0.74 h
- Vd/F [1, 5]: 331 ± 125 L/kg
- half-life [1, 5]: 2.18 ± 1.05 h
- AUC(0-inf) [1, 6]: 299 ± 46.8 ng·h/mL
- AUC(0-t) [1, 6]: 281 ± 43.3 ng·h/mL
- Cmax [1, 6]: 39.8 ± 8.12 ng/mL
- Tmax [1, 6]: 1.83 ± 1.03 h
- CL/F [1, 6]: 855 mL/min/kg
- MRT last [1, 6]: 6.53 ± 0.97 h
- MRT inf [1, 6]: 8.35 ± 3.38 h
- Vd/F [1, 6]: 383 ± 316 L/kg
- half-life [1, 6]: 5.4 ± 4.96 h

Reference: paper PMC10582335 (Frontiers in Pharmacology, 2023)
